Data published in US8039506B2, “Bicyclic lactam factor VIIa inhibitors useful as anticoagulants” (Bristol-Myers Squibb Company, priority 2006, dated 2011).
Where “and” joins values, the source holds several entries; their conditions need not be identical. Identical values can stand only once.

Molecular target: T1, human Factor VIIa (Homo sapiens, UniProt P08709)
T1 construct: with about 1% of the total amount in the proteolytically active form factor VIIa; purchased Haematologic Technologies (plasma-purified) or Novo Nordisk (recombinant)
Test: Factor VIIa assay (hydrolysis of chromogenic substrate, Ki)
Assay type: biochemical
Details: several values in one cell = repeat determinations

T1 sequence (P08709 213-466 limits assumed): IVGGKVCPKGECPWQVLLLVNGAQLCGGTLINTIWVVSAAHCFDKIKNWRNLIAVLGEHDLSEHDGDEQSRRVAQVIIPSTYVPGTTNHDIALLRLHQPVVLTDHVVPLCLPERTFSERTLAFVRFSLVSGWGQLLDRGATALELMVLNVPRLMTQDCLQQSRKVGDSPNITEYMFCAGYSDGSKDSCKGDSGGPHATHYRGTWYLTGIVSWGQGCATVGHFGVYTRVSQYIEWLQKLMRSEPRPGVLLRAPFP
T1 sequence (P08709 61-212 limits assumed): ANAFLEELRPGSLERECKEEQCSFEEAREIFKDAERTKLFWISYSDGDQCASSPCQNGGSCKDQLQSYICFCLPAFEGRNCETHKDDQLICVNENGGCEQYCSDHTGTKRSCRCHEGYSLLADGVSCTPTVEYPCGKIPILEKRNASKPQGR
T1 sequence (P13726 33-251 partner limits assumed): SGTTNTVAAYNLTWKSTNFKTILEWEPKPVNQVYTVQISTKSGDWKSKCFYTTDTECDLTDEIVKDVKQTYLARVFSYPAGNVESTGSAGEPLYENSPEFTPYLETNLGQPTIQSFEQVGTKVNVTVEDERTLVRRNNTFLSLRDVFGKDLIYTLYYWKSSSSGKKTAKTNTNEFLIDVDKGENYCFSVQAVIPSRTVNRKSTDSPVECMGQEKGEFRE

| Ki | Structure (SMILES) |
| --- | --- |
| > 13000 nM | COC(=O)Nc1ccc(S(=O)(=O)C(C)C)c([C@H]2CCCN2C(=O)C(Nc2ccc(F)c3c2CNC3=O)c2ccc(OC)c(OC)c2)c1 (single isomer, unassigned) [Example 6] |
| 41 nM and 88 nM | CC[C@H]1CNC(=O)c2cc(NC(C(=O)N3CCC[C@@H]3c3cc(NC(=O)OC)ccc3S(=O)(=O)C(C)C)c3ccc(OC)c(OC)c3)ccc21 (single isomer, unassigned) [Example 18] |
| < 5 nM and 3.5 nM | COC(=O)Nc1ccc(S(=O)(=O)C2CC2)c([C@H]2CCCN2C(=O)[C@H](Nc2ccc3nc[nH]c(=O)c3c2)c2ccc(F)c(OC)c2)c1 (single isomer, unassigned) [Example 22] |
| 60 nM | COc1cc([C@@H](Nc2ccc3c(c2)C(=O)NC3)C(=O)N2CC[C@H](C(=O)O)[C@@H]2c2ccccc2S(=O)(=O)C2CC2)ccc1F [Example 28, (2R,3S)-2-(2-(cyclopropylsulfonyl)phenyl)-1-((R)-2-(4-fluoro-3-methoxyphenyl)-2-(3-oxoisoindolin-5-ylamino)acetyl)pyrrolidine-3-carboxylic acid] |
